Reference: US10537650B2, “Molecular probes for multimodality imaging and tracking of stem cells” (University of Massachusetts, priority 2012, dated 2020)
Values joined by “and” are separate entries in the source; they are usually repeats but may differ in a detail not shown here. Equal values may be shown once.

Columns and labels:
LS174T cells [1] = test: Flow cytometry of LS174T cells labeled with MTTI-157: labeling efficiency under different conditions; assay type: cell-based, human; details: for labeling efficiency: Set 1, dye dissolved in ethanol
Procedure: The method for LS174T cells labeling with MTTI-157 was as described as before. Briefly, LS174T cells were trypsinized, collected, and washed twice with MEM without serum and then resuspended in Diluent C. Immediately, prior to staining; a 2× working dye stock solution in Diluent C was prepared. The cell suspension was added rapidly to an equal volume of the 2× working dye solution and immediately mixed by pipetting up. […] Subsequently, the cell suspension was spun at 400 g for 5 min. […] After labeling, the labeled cells were fixed in 2% paraformaldehyde and analyzed by flow cytometry.
MTTI-157 was dissolved in ethanol at the concentration of 2 μg/μL.
MTTI-157 was dissolved in DMSO at the concentration of 2 μg/μL.

LS174T cells [2] = test: Optimization of dye concentrations: flow cytometry of LS174T cells labeled with six DiD dyes; assay type: cell-based, human
Procedure: (§1) The human colon cancer cell line LS174T was used here as a model to identify the optimal dyes marker with minimal transfer to neighbor cells for cell tracking. A family of DiD dyes (Ex: 648 nm, Em: 667 nm) with variable lipophilic aliphatic tails (Cm/Cn here refer to lengths lipophilic aliphatic tails in the number of C atoms) were investigated: MT279 (C22/C3), MT280 (C22/C12), MT284 (C14/C3), MT285 (C14/C14), CN1012 (C20/C20), MTTI-157 without the DOTA (C22/C22). LS174T cells were cultured in minimal essential medium (MEM) with nonessential amino acids, 10% fetal bovine serum (FBS) and 1% penicillin/streptomycin at 37° C. in a humidified atmosphere with 5% CO2 and were passaged weekly.
Four working dye stock solutions were investigated. LS174T cells were trypsinized, collected, and washed twice with MEM without serum when the flask was 90% confluent. […] Immediately, prior to staining, 2× working dye stock solutions (1 μM, 4 μM, 10 μM or 20 μM) in Diluent C were prepared. Then 500 μl of cell suspension was added rapidly into 500 μl of 2× working dye and immediately mixed by pipetting. […] The labeled cells were fixed in 2% paraformaldehyde and analyzed by flow cytometry.

TC1 wild type mES cells = test: Culture and fluorescence microscopy of MTTI-157 labeled TC1 mES cells; assay type: cell-based, mouse; details: through Day 4, 2 μM and 10 μM dye
Procedure: The MTTI-157 labeled mES cells were seeded into 12-well plates with about 0.5×10^6 cells per well to grow under normal culture conditions to evaluate cell viability, differentiation, fluorescence dye stability, and dye partitioning to daughter cells over time. Unlabeled normal TC1 wild type mES cells were used as control. The cell associated fluorescence was detected from the plates on an Olympus IX 70 Inverted Light Microscope (Olympus America, Inc., NY) using a Cy5 filter on Days 0, 1 and 4 after seeding.
After dye labeling, the trypan blue staining was performed to detect cell viability. […] The fluorescence is shown in red and paired with the phase-contrast image on its right. […] It is obvious from Rows 2 and 3 that the MTTI-157 incorporated into the mES cells. […] By the next day (Day 1), the cells begin to merge forming clones, as expected, and the fluorescence is seen distributed within the clones with passage to other members of the cell cluster, i.e., the daughter cells. On Day 4, the cell clusters are now larger and more cells within the cluster appear to carry the fluorescence signal.

Wild type mES cells BL/6 = test: Flow cytometry of BL/6 mES cells labeled with MTTI-157 (percent labeled cells); assay type: cell-based, mouse
Text: Unlabeled BL/6 cells were used as a control.

LS174T cells [3] = test: Dye transfer: co-culture of dye labeled and unlabeled LS174T cells, flow cytometry; assay type: cell-based, human
Procedure: as §1
LS174T cells were trypsinized, collected, and washed twice with MEM without serum and labeled with the six dyes according to the method described above. […] Study sets are described below. One (1) ml of the cell suspension was added rapidly to 1 ml of 2× working dye solution and immediately mixed by pipetting. […] Subsequently, the cells suspension was spun at 400 g for 10 min. […] The cell viability was determined by trypan blue staining. The dye labeled cells were co-cultured with an equal number of unlabeled cells under normal culture conditions. Samples were removed at 0 h, 24 h and 48 h after initiation of co-culture and fixed in 2% paraformaldehyde for flow cytometry analysis.

SMILES: CCCCCCCCCCCCCCCCCCCCCCN1C(=CC=CC=CC2=[N+](CCCCCCCCCCCCCCCCCCCCCC)c3ccc(CNC(=O)CN4CCN(CC(=O)O)CCN(CC(=O)O)CCN(CC(=O)O)CC4)cc3C2(C)C)C(C)(C)c2ccccc21.[I-] [MTTI-157]
- labeling efficiency (LS174T cells [1]; final dye concentration 10 μM): about 60%
- labeling efficiency (LS174T cells [1]; highest final dye concentration of 20 μM): about 70%
- % labeled cells in total cells by FACS (LS174T cells [1]; dye dissolved in DMSO, final dye 10 μM, final cells 10 ×10^7/ml, DMSO in 2x working dye stock 2%): 97.3%
- % labeled cells in total cells by FACS (LS174T cells [1]; dye dissolved in DMSO, final dye 20 μM, final cells 10 ×10^7/ml, DMSO in 2x working dye stock 4%): 97.9%
- % labeled cells in total cells by FACS (LS174T cells [1]; dye dissolved in DMSO, final dye 20 μM, final cells 20 ×10^7/ml, DMSO in 2x working dye stock 4%): 98.6%
- % labeled cells in total cells by FACS (LS174T cells [1]; dye dissolved in DMSO, final dye 40 μM, final cells 10 ×10^7/ml, DMSO in 2x working dye stock 8%): 99.2%
- % labeled cells in total cells by FACS (LS174T cells [1]; dye dissolved in DMSO, final dye 40 μM, final cells 20 ×10^7/ml, DMSO in 2x working dye stock 8%): 98.5%
- % labeled cells in total cells by FACS (LS174T cells [1]; dye dissolved in DMSO, final dye 80 μM, final cells 10 ×10^7/ml, DMSO in 2x working dye stock 16%): 99.5%
- % labeled cells in total cells by FACS (LS174T cells [1]; dye dissolved in ethanol, final dye 2 μM, final cells 1 ×10^7/ml, DMSO in 2x working dye stock 0%): 12.6%
- % labeled cells in total cells by FACS (LS174T cells [1]; dye dissolved in ethanol, final dye 2 μM, final cells 1 ×10^7/ml, DMSO in 2x working dye stock 2%): 23.7%
- % labeled cells in total cells by FACS (LS174T cells [1]; dye dissolved in ethanol, final dye 2 μM, final cells 10 ×10^7/ml, DMSO in 2x working dye stock 0%): 29.5%
- % labeled cells in total cells by FACS (LS174T cells [1]; dye dissolved in ethanol, final dye 10 μM, final cells 1 ×10^7/ml, DMSO in 2x working dye stock 0%): 62.7%
- % labeled cells in total cells by FACS (LS174T cells [1]; dye dissolved in ethanol, final dye 10 μM, final cells 1 ×10^7/ml, DMSO in 2x working dye stock 2%): 55.9%
- % labeled cells in total cells by FACS (LS174T cells [1]; dye dissolved in ethanol, final dye 10 μM, final cells 10 ×10^7/ml, DMSO in 2x working dye stock 0%): 57.9%
- % labeled cells in total cells by FACS (LS174T cells [1]; dye dissolved in ethanol, final dye 20 μM, final cells 1 ×10^7/ml, DMSO in 2x working dye stock 0%): 74.3%
- % labeled cells in total cells by FACS (LS174T cells [1]; dye dissolved in ethanol, final dye 20 μM, final cells 1 ×10^7/ml, DMSO in 2x working dye stock 2%): 71.1%
- % labeled cells in total cells by FACS (LS174T cells [1]; dye dissolved in ethanol, final dye 20 μM, final cells 10 ×10^7/ml, DMSO in 2x working dye stock 0%): 75.0%
- percent of cells labeled (LS174T cells [2]; dye concentration 0.5 μM): 71.5%
- percent of cells labeled (LS174T cells [2]; dye concentration 2 μM): 92.3%
- percent of cells labeled (LS174T cells [2]; dye concentration 5 μM): 98.6%
- percent of cells labeled (LS174T cells [2]; dye concentration 10 μM): 99.4%
- effects on cellular differentiation (TC1 wild type mES cells): no obvious effects on cellular differentiation
- percent of labeled cells in total cells (Wild type mES cells BL/6; 2 μM dye): 9.8%
- percent of labeled cells in total cells (Wild type mES cells BL/6; 10 μM dye): 28.7%
- percent of labeled cells in total cells (Wild type mES cells BL/6; 20 μM dye): 34%
- Percent of unlabeled cells incorporating dye from labeled cells compared to the value at 0 h (LS174T cells [3]; Set 1, 2 μM dye, 24 h of co-culture): 22.39%
- Percent of unlabeled cells incorporating dye from labeled cells compared to the value at 0 h (LS174T cells [3]; Set 1, 2 μM dye, 48 h of co-culture): 22.74%
- Percent of unlabeled cells incorporating dye from labeled cells compared to the value at 0 h (LS174T cells [3]; Set 2, 10 μM dye, 24 h): 22% and 22.17%
- Percent of unlabeled cells incorporating dye from labeled cells compared to the value at 0 h (LS174T cells [3]; Set 2, 10 μM dye, 48 h): 28% and 28.45%
- Percent of unlabeled cells incorporating dye from labeled cells compared to the value at 0 h (LS174T cells [3]; Set 3, 5 μM dye, 24 h): 6.93%
- Percent of unlabeled cells incorporating dye from labeled cells compared to the value at 0 h (LS174T cells [3]; Set 3, 5 μM dye, 48 h): 22.16%
- dye transfer to unlabeled cells (in words) (LS174T cells [3]; Set 4, 0.5 μM dye): dye transfer took place
- Percent of unlabeled cells incorporating dye from labeled cells compared to that at 0 h (LS174T cells [3]; Set 4, 0.5 μM dye, 24 h): 13.58%
- Percent of unlabeled cells incorporating dye from labeled cells compared to that at 0 h (LS174T cells [3]; Set 4, 0.5 μM dye, 48 h): 14.675%
- Percent of unlabeled cells incorporating dye from labeled cells compared to that at 0 h (LS174T cells [3]; Set 4, 2 μM dye, 24 h): 23.555%
- Percent of unlabeled cells incorporating dye from labeled cells compared to that at 0 h (LS174T cells [3]; Set 4, 2 μM dye, 48 h): 25.615%
